The results in this text go back to patent US9296691B2, “Inhibitors of p75 receptor and their uses” (Horacio Uri Saragovi, priority 2010, dated 2016).

The target of one test is T1, p75-Fc (Homo sapiens, UniProt P08138).
T1 construct: purchased R&D
T1 sequence (P08138 29-250 limits assumed): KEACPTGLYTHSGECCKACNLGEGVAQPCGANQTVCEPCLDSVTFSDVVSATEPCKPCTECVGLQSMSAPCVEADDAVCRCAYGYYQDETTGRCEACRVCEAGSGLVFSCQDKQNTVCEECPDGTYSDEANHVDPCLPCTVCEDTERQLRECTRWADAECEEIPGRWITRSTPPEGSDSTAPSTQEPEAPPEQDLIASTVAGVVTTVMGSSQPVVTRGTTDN
Briefly: Competitive ELISA, p75-Fc binding to immobilized NGF. How it is done: (§1) The effect of compounds I-B and LM-24 on the binding between NGF and p75 was tested in competitive ELISA assays, where the antagonists prevent soluble p75 from binding to immobilized NGF. The selectivity of antagonism was evaluated by lack of effect upon NGF-TrkA or lack of effect between NGF and anti-NGF monoclonal antibody (mAb) NGF30 interactions (FIG. 1A).
The compound LM-24 has been reported by others (Massa et al., 2006). Binding studies were carried out with all the compounds using I-B as reference.
(§2) Competitive ELISAs were performed as described (Saragovi et al., 1998). The procedure immobilized 50 ng/well NGF, or pro-NGF (Alomone Labs, Israel) onto polystyrene 96-well microtest plates, with washing and blocking with binding buffer (BB; phosphate buffered saline containing 0.5% bovine serum albumin). The following primary reagents in BB were added: recombinant chimeric p75-Fc or recombinant chimeric TrkA-Fc (R&D), or anti-NGF mAb NGF30 (Saragovi et al., 1998); each at 50 nM. The competitors I-B and the other test compounds (or control LM-24) were added at the indicated concentrations, and the plates were incubated for 45 minutes. After washing 3× in BB, HRP-conjugated secondary reagents (Sigma) were added for 30 min (goat anti-human Fc for p75-Fc and for TrkA-Fc; and goat anti-rat Ab for NGF30 mAb), and then wells were washed 3× in BB and 1× in PBS. Peroxidase activity was determined colorimetrically using the substrate TMB One Solution (Promega). The reaction was stopped with 0.5 N H2SO4 and the plates were read at 450 nm (Benchmark Plus, Bio-Rad). Assays were repeated n>4 times, with replicates of 4 wells each assay. […] Wells with no NGF immobilized but with all other reagents added were treated as background (<15% of maximal signals) and standardized to 0% binding.

For another test, the target named is T2, TrkA-Fc (Homo sapiens, UniProt P04629).
T2 construct: purchased R&D
T2 sequence (P04629 33-423 limits assumed): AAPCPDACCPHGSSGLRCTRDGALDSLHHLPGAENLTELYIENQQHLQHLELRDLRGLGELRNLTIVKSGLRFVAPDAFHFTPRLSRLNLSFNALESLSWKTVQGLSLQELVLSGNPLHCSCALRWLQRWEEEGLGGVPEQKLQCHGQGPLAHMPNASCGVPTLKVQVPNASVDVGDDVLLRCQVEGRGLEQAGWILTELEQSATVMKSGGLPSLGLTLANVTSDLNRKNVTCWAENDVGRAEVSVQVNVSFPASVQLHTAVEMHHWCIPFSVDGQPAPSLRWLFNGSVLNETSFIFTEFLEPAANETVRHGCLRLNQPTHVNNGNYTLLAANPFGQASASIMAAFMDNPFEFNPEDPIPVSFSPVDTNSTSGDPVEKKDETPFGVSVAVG
Put plainly: Competitive ELISA, TrkA-Fc binding to immobilized NGF (selectivity control). How it is done: as §1, §2
On the technique in general: ELISA stands for enzyme-linked immunosorbent assay.

Test [1] concerns retinal ganglion cells (RGCs). Briefly: Glaucoma (episcleral vein cauterization) model, quantification of surviving RGCs. The test is classed as in vivo. To be noted: rat glaucoma, intravitreal injections days 14 and 21, endpoint day 42; contralateral normal eye = 100%; control glaucoma 74-77%. How it is done:
Wistar rats (female, 250-300 g; Charles River) were kept in a 12 hours dark-light cycle with food and water ad libitum. All animal manipulations were performed between 9 AM and 12 AM. Deep anesthesia was used during cauterization (induction of glaucoma), ON transection, fluorogold labeling, intraocular injection procedures, Optical Coherence Tomography measurements, and euthanasia (ketamine, xylazine, acepromazine injected intraperitoneally: 50/5/1 mg/kg, as per IACUC recommendations). For measuring IOP, light anesthesia was used (a gas mixture of Oxygen, 2% isofluorane mixture, at a rate of 2.5 liter/min, as per IACUC recommendations).
The episcleral vein cauterization (EVC) model of rat (Shi et al., 2007; Shi et al., 2008) was used. […]
For studies in the glaucoma animal model the injections were performed at days 14 and 21 after cauterization. […] Thus, in this paradigm there is pre-existing damage for 14 days before treatment (measured at ˜8% RGC death (Shi et al., 2007; Shi et al., 2008)); and the treatments require long-lived efficacy in the constant presence of retinal stress due to high IOP. […]
Quantification of labeled RGCs was performed as reported (Shi et al., 2007; Shi et al., 2008). […] Pictures for each freshly flat-mounted retina were taken using a Zeiss fluorescence microscope (Carl Zeiss Meditec, Jena, Germany), with 12 pictures/retina at 20× magnification. […]

[2] abbreviates: competitive ELISA, FIG. 1A, compound at 30 μM.

The molecule `CC(C)NC(=O)N(C(=O)Cn1cnc2c1c(=O)n(C)c(=O)n2C)C(C)C` [I-B, 1,3-Diisopropyl-1-[2-(1,3-dimethyl-2,6-dioxo-1,2,3,6-tetrahydro-purin-7-yl)-acetyl]-urea] displayed a remaining activity at 30 µM on p75-Fc (0.75 h, binding to immobilized NGF, no cpd = 100%, p75-Fc 50 nM, as described for FIG. 1A (compounds 30 μM), below 100% indicates inhibition) of 52%. For the same molecule, the “effect on NGF-p75NTR interaction” value at p75-Fc (setting [2]) is given as “antagonized NGF-p75NTR interactions selectively”. Also, the “TrkA-Fc binding AVERAGE” value on TrkA-Fc (binding to immobilized NGF, no cpd = 100%, TrkA-Fc 50 nM, as described for FIG. 1A) is reported as 107%. On TrkA-Fc (setting [2]), the “effect on binding of TrkA to NGF” value was “did not interfere”. In test [1], this molecule gave an RGCs surviving of 92%.

One may read the remaining activity as the activity still measured, relative to the control. Read a low remaining activity as little activity left.
